According to patent publication US20130338203A1, “TREATMENT OF ARTERIAL AGEING BY COMBINATION OF RAAS INHIBITOR AND HMG-CoA REDUCTASE INHIBITOR” (FARMICOM PHARMACEUTICAL COMPANY D.O.O., priority 2011, published 2013):
Like-named read-outs stand apart in the source and are kept apart here.

What was measured:
isolated rat heart [1] = assay: Coronary flow rate of isolated heart, ischaemia-reperfusion (Example 12)
[2] = test system: isolated rat aortic rings; assay: Endothelium-dependent relaxation of isolated aortic rings after incubation with drugs (Example 12)
thoracic aorta = assay: Endothelium-dependent relaxation of thoracic aorta after 6 weeks oral treatment (Example 13); type: in vivo, Wistar rats; conditions: rats, 6 weeks treatment p.o., NS
Description: Sixty Wistar rats of both sexes weighing 230-280 g, 20-24 weeks of age, were obtained from the Faculty of Medicine, Ljubljana. […] A regular 12 h circadian cycle was maintained and between 5 and 7 animals were kept in each cage. The temperature of the experimental environment was 23-25° C. […] After 4-8 weeks of therapy the animals were sacrificed, blood samples were collected and heart and thoracic aorta were isolated. Each group was composed of the same number of male and female rats. […] After mounting, rings were allowed to equilibrate at 20 mN resting tension (found to be optimal in previous experiments) for 60 min. During this period, the tension was periodically adjusted to the desired level and the K-H solution was changed every 10 minutes. After the equilibration period, the rings were contracted three times with 60 mmol/L KCl to achieve stable contractions. […] In control animals the endothelium-dependent relaxation of the thoracic aorta was constant. However, in rats treated with drugs the percentage of endothelium-dependent relaxation was increased in comparison to the control group.

heart = assay: Coronary flow rate after 6 weeks oral treatment (Example 13); type: in vivo, Wistar rats; conditions: rats, 6 weeks treatment p.o., 40-minute ischemia, reperfusion, P < 0.001
Description: Sixty Wistar rats of both sexes weighing 230-280 g, 20-24 weeks of age, were obtained from the Faculty of Medicine, Ljubljana. […] A regular 12 h circadian cycle was maintained and between 5 and 7 animals were kept in each cage. The temperature of the experimental environment was 23-25° C. […] After 4-8 weeks of therapy the animals were sacrificed, blood samples were collected and heart and thoracic aorta were isolated. Each group was composed of the same number of male and female rats.

[3] = in vivo; cited from earlier work
isolated rat heart [4] = assay: LDH release rate, myocardial ischaemic-reperfusion injury of isolated heart (Example 12); conditions: losartan 1 μM; P < 0.01
arterial wall = conditions: Ex 8 valsartan group, cited from earlier work
common carotid artery = conditions: cited from earlier work
brachial artery = conditions: cited from earlier work; for FMD, improvement (increase): Ex 8 valsartan group, 30 days vs before
carotid artery = conditions: cited from earlier work
[5] = test system: high sensitivity C-reactive protein (hsCRP); conditions: Ex 9 valsartan group, 1 month treatment; calculated on data from co-pending patent application; cited from earlier work
[6] = Ex 8, 1 month treatment period with Valsartan only
[7] = Ex 8 valsartan group, 20 mg daily, 30 days vs before
[8] = Ex 8 valsartan group, 20 mg daily, 30 days
[9] = Ex 8 valsartan group, 7 months of rest period

CC(C)c1c(C(=O)Nc2ccccc2)c(-c2ccccc2)c(-c2ccc(F)cc2)n1CC[C@@H](O)C[C@@H](O)CC(=O)O [atorvastatin]
Increase in coronary flow compared to controls (isolated rat heart [1]; atorvastatin 0.1 μM, P < 0.05): 52.9%
Endothelium dependent relaxation compared to controls ([2]; atorvastatin 1 μM, P < 0.001): 21.1%
Increase of endothelium dependent relaxation compared to controls (thoracic aorta; daily dose 5 mg/kg): 6.9%
Increase in coronary flow compared to controls (heart; daily dose 5 mg/kg): 86.9%

CC(C)n1c(/C=C/C(O)CC(O)CC(=O)O)c(-c2ccc(F)cc2)c2ccccc21 (stereo not drawn) [fluvastatin]
half-life time (t1/2) in the blood plasma [3]: about 2.5 hours

CCCCc1nc(Cl)c(CO)n1Cc1ccc(-c2ccccc2-c2nn[nH]n2)cc1 [losartan]
half-life time (t1/2) in the blood plasma [3]: 1.5 to 2 h
Increase in coronary flow compared to controls (isolated rat heart [1]; losartan 1 μM, P < 0.001): 67.3%
Decrease of the LDH release rates compared to controls (isolated rat heart [4]): 58.6%
Endothelium dependent relaxation compared to controls ([2]; losartan 10 μM, P < 0.01): 17.0%
Increase of endothelium dependent relaxation compared to controls (thoracic aorta; daily dose 2 mg/kg): 7.3%
Increase in coronary flow compared to controls (heart; daily dose 2 mg/kg): 89.6%

CCCCC(=O)N(Cc1ccc(-c2ccccc2-c2nnn[nH]2)cc1)[C@H](C(=O)O)C(C)C [valsartan]
Arterial age according to age normogram, improvement (arterial wall; 20 mg daily, 30 days vs before): −7.0 years
Arterial age according to age normogram, after treatment (arterial wall; 20 mg daily, 30 days): 38.0 years
Arterial age according to age-related normogram (arterial wall; 7 months of rest period): 43.5 years
Arterial age, difference to before treatment (in brackets) (arterial wall; 7 months of rest period): −1.5 years
Arterial age according to age normogram, before treatment (arterial wall; baseline): 45.0 years
half-life time (t1/2) in the blood plasma [3]: about 6.0 hours
PWV decreased by (common carotid artery; [6]): 7.2%
PWV, improvement (common carotid artery; [7]): −7.2%
PWV, after treatment (common carotid artery; [8]): 5.41 m/s
PWV, residual improvement in % of effect achieved after 1 month of treatment (common carotid artery; [9]): 9.9%
PWV, before treatment (common carotid artery; Ex 8 valsartan group, baseline): 5.80 m/s
FMD, residual improvement in % of effect achieved after 1 month of treatment (brachial artery; Ex 8 valsartan group (20 mg daily, 30 days), 7 months of rest period): 30.4%
FMD, improvement (increase) (brachial artery; 20 mg daily): +156.0%
FMD, improvement (increase) (brachial artery; 20 mg daily, listed as Valsartan): 156.0%
FMD, after treatment (brachial artery; Ex 8 valsartan group: healthy men 43.0 y (n=20), 20 mg daily, 30 days, data from co-pending patent application): 5.40%
FMD, before treatment (brachial artery; Ex 8 valsartan group: healthy men 43.0 y (n=20), baseline, data from co-pending patent application): 2.11%
β-stiffness of the carotid artery decreased by (carotid artery; [6]): 13.7%
β-stiffness, improvement (carotid artery; [7]): −13.7%
β-stiffness, after treatment (carotid artery; [8]): 6.40 U
β-stiffness, residual improvement in % of effect achieved after 1 month of treatment (carotid artery; [9]): 9.2%
β-stiffness, before treatment (carotid artery; Ex 8 valsartan group, baseline): 7.28 U
Change in hs-CRP value after treatment [5]: +2.45%
